Experimental data as given in patent US12338443B2, “Photoactivatable Tet expression control system” (JAPAN SCIENCE AND TECHNOLOGY AGENCY, priority 2018, dated 2025).

T1: CIB1 (Arabidopsis thaliana, UniProt Q8GY61)
T1 sequence (Q8GY61 1-335): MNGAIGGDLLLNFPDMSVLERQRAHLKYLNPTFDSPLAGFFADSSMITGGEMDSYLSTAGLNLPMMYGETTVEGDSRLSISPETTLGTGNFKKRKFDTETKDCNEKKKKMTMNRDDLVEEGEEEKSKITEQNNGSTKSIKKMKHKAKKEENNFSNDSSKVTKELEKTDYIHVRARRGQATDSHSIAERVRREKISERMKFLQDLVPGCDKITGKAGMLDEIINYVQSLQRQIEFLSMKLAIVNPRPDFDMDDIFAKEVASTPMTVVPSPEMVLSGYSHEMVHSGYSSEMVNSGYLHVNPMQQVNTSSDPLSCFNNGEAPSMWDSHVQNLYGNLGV


Columns and labels:
[1] = system: pTREtight-Ub-ELuc reporter in HEK293T cells; experiment: PA-Tet-independent / PA-Tet-ON construct luciferase assay with or without Dox (Example 3, Table 5); format: cell-based, human; conditions: first batch; for An initial construct screening result: Light (relative luminescence signal intensity): blue light
Description: For each construct, a plasmid containing the expression cassette was introduced into HEK293T cells together with a pTREtight-Ub-ELuc reporter, thereby obtaining transformed cells. These cells were irradiated with blue light in the absence of Dox or in the presence of Dox, and the light-dependent transcriptional activity of Ub-ELuc was investigated. All experiments were performed in 3 independent trials (3 batches) to obtain consistent results.

[2] = system: pTREtight-Ub-ELuc reporter in HEK293T cells; experiment: Relationship between Dox concentration and gene expression induction, near-infrared light (Table 9); format: cell-based, human; parameters: scale not given here; conditions: 25 μM BV; for Light: near-infrared light 750 nm
Description: Next, for QT4, QT7 and QT8 constructs, the relationship between Dox concentration and gene expression induction was investigated. Specifically, the relationship was investigated in the same manner as in “Functional screening of PA-Tet-OFF candidate constructs” described above, except that HEK293T cells were seeded in a 24-well plate at 6×10^4 cells/well, the medium was replaced with a medium containing 25 μM BV and having Dox concentration described in Table 9 6 hours after transfection, the cells were irradiated with near-infrared light (750 nm, 4.0 mW/cm^2) for 42 hours by being exposed to light for 30 seconds every 180 seconds, and a 750 nm LED (SMBB750D-1100, manufactured by Ushio Inc.) was used as a light source. All experiments were performed in 3 independent trials (3 batches) to obtain consistent results.

[3] = system: pTREtight-Ub-ELuc reporter in HEK293T cells; experiment: Relationship between Dox concentration and induced gene expression level (FIG. 7); format: cell-based, human
Description: In order to analyze the relationship between the Dox concentration and the induced gene expression level, HEK293T cells were seeded in a 24-well plate at 5 to 9×10^4 cells/well, transfected, and assayed in the same manner as in candidate construct screening. Dox was applied to the cells at concentrations of 0, 1, 7.5, 15, 20, 50, and 100 ng/mL for the PA-Tet-OFF constructs and at concentrations of 0, 10, 15, 20, 30, 35, 40, 50, 75, 100, and 250 ng/mL for the PA-Tet-ON constructs. The cells were irradiated with blue light (7.2 W/m^2; pulsed for 2 seconds every minute) for 3 hours.
In addition, for the PA-Tet-OFF system using the PA-Tet-OFF-T2A construct and the PA-Tet-independent system using the PA-Tet-H100Y construct, the influence of DOx concentration on the PA-Tet-controlled expression efficiency was investigated. Furthermore, for the PA-Tet-ON system using a construct obtained by introducing a V10 mutation into the PA-Tet-OFF-T2A construct (PA-Tet-ON-T2A construct), the influence of Dox concentration on the PA-Tet-controlled expression efficiency was investigated. The data represent mean±standard deviation (n=3) obtained from one experiment. In FIGS. 7(A) and 7(B), “*” means p<0.05 (paired student's t-test).

[4] = system: brain neurons of mouse pups; experiment: Light- and Dox-dependent luciferase expression in brain neurons of mouse pups; format: in vivo; conditions: PA-Tet-OFF system; after single dosing of Dox 0.1 mg/g
Description: For irradiating the brains of mouse pups with light, anesthetized mice were stimulated through an optical fiber using a blue LED (PLEXBRIGHT®, manufactured by Plexon Inc). After being irradiated with blue light (40 W/m^2; pulsed for 1 second every 15 seconds; continued for 3 hours), the mice were immediately sacrificed, the right brain irradiated with blue light was immediately extracted and lysed, and the luciferase activity thereof was measured.
The mice were treated with Dox. For long-term Dox administration, drinking water containing 1 mg/mL Dox in a 5% by mass sucrose solution was given to the mice. […]
Next, Dox-dependent inhibition of transcriptional activity of the PA-Tet-OFF system in brain neurons was analyzed. […] The luminescence signal intensity induced by the luciferase expression in the brain cells after the light irradiation treatment was measured. Furthermore, for mice treated with Dox (0.1 mg/g (body weight)) 1 hour before the light irradiation treatment, the luminescence signal intensity was also measured in the same manner. In the mouse brain neurons (represented by “Light” in FIG. 25) subjected to the light irradiation treatment, luciferase expression was activated, and the luminescence signal intensity increased. […]
Furthermore, the restoration of light-inducible transcriptional activity after removal of Dox was analyzed in cells transfected with the PA-Tet-OFF system. […]

CIB1 = biological target: T1, CIB1; conditions: after light activation; cited from earlier work

Molecule	Light ([2]; Dox 0 ng/mL)	Dark ([2]; Dox 1.0 ng/mL)	Light ([2]; Dox 1.0 ng/mL)	Dark ([2]; Dox 2.0 ng/mL)	Light ([2]; Dox 2.0 ng/mL)	Light ([2]; Dox 3.0 ng/mL)	Dark ([2]; Dox 4.0 ng/mL)	Light ([2]; Dox 4.0 ng/mL)	Dark ([2]; Dox 5.0 ng/mL)	Light ([2]; Dox 5.0 ng/mL)	Dark ([2]; Dox 10.0 ng/mL)	Light ([2]; Dox 10.0 ng/mL)	further results
T86: TetR(I194T)-SPKKK-CIBN no NLS + Cry2 PHR (L348F)-p65 AD-NLSx2 (Element #1 SEQ ID NO: 5, Element #2 SEQ ID NO: 6) [Construct T86]	–	–	–	–	–	–	–	–	–	–	–	–	An initial construct screening result: Light (relative luminescence signal intensity) ([1]; Dox 0 ng/mL): 12.3; An initial construct screening result: Light (relative luminescence signal intensity) ([1]; Dox 75 ng/mL): 0.1; An initial construct screening result: Dark (relative luminescence signal intensity) ([1]; Dox 75 ng/mL, dark): 0.1
QT8: RpBphP1-TSTR-TetR(I194T) + 2xNLS-p65AD-HMEF-Q-PAS1 (SEQ ID NO: 28, 27)	152.0	14.5	143.1	17.1	112.2	108.7	15.1	86.8	15.2	63.9	3.1	7.2	Dark ([2]; Dox 3.0 ng/mL): 16.0
C[C@H]1c2cccc(O)c2C(=O)C2=C(O)[C@]3(O)C(=O)C(C(N)=O)=C(O)[C@@H](N(C)C)[C@@H]3[C@@H](O)[C@@H]21 [Dox, doxycycline]	–	–	–	–	–	–	–	–	–	–	–	–	extremely low Dox concentration at which the effect brought about by Dox was observed ([3]; PA-Tet-OFF system): 1 ng/mL; extremely low Dox concentration at which the effect brought about by Dox was observed ([3]; PA-Tet-ON system): 10 ng/mL; duration of inhibition of light-induced luciferase expression [4]: 4 days
QT4: TetR(I194T)-SPKKK-HMEF-RpBphP1 + 2xNLS-p65AD-HMEF-Q-PAS1 (SEQ ID NO: 26, 27)	17.7	0.2	0.2	–	–	–	–	–	–	–	–	–	Light ([2]; Dox 0.025 ng/mL): 20.6; Light ([2]; Dox 0.050 ng/mL): 10.7; Dark ([2]; Dox 0.100 ng/mL): 0.5; Light ([2]; Dox 0.100 ng/mL): 10.1; Dark ([2]; Dox 0.200 ng/mL): 0.3; Light ([2]; Dox 0.200 ng/mL): 2.9; Dark ([2]; Dox 0.500 ng/mL): 0.2
QT7: RpBphP1-TSTR-TetR(I194T) + p65AD-HMEF-Q-PAS1 (SEQ ID NO: 28, 29)	53.7	2.9	29.9	2.7	34.7	25.0	1.3	17.6	1.6	16.4	0.3	3.7	–
Cry2: Arabidopsis thaliana Cryptochrome 2 photoreceptor binding CIB1 in a blue light-specific manner (protein, Cry2) MKMDKKTIVWFRRDLRIEDNPALAAAAHEGSVFPVFIWCPEEEGQFYPGRASRWWMKQSLAHLSQSLKALGSDLTLIKTHNTISAILDCIRVTGATKVVFNHLYDPVSLVRDHTVKEKLVERGISVQSYNGDLLYEPWEIYCEKGKPFTSFNSYWKKCLDMSIESVMLPPPWRLMPITAAAEAIWACSIEELGLENEAEKPSNALLTRAWSPGWSNADKLLNEFIEKQLIDYAKNSKKVVGNSTSLLSPYLHFGEISVRHVFQCARMKQIIWARDKNSEGEESADLFLRGIGLREYSRYICFNFPFTHEQSLLSHLRFFPWDADVDKFKAWRQGRTGYPLVDAGMRELWATGWMHNRIRVIVSSFAVKFLLLPWKWGMKYFWDTLLDADLECDILGWQYISGSIPDGHELDRLDNPALQGAKYDPEGEYIRQWLPELARLPTEWIHHPWDAPLTVLKASGVELGTNYAKPIVDIDTARELLAKAISRTREAQIMIGAAPDEIVADSFEALGANTIKEPGLCPSVSSNDQQVPSAVRYNGSKRVKPEEEEERDMKKSRGFDERELFSTAESSSSSSVFFVSQSCSLASEGKNLEGIQDSSDQITTSLGKNGCK	–	–	–	–	–	–	–	–	–	–	–	–	half-life of spontaneous dissociation from CIB1 (CIB1): about 5.5 minutes
